Reference: patent publication US8399444B2, “Bicyclic imidazole as DP1 receptor antagonists” (GlaxoSmithKline Intellectual Property Development Ltd., priority 2008, dated 2013)
“And” between values parts separate entries of the source, which are not always exact repeats. Identical values can stand only once. Counter-ions that a name gives are not always drawn.

Experiments:
Prostanoid DP1 receptor = molecular target: T1, Prostanoid DP1 receptor (Homo sapiens, UniProt Q13258); experiment: Measurement of cAMP using TR-FRET LANCE assay: Prostanoid DP1; type: cell-based; settings: CHO cells expressing DP1 receptor, antagonism of PGD2 (EC80) cAMP response; read-out: pKi value (converted)
T1 construct: expressed in transfected cells; host or cells: CHO K1
T1 sequence (Q13258 1-359): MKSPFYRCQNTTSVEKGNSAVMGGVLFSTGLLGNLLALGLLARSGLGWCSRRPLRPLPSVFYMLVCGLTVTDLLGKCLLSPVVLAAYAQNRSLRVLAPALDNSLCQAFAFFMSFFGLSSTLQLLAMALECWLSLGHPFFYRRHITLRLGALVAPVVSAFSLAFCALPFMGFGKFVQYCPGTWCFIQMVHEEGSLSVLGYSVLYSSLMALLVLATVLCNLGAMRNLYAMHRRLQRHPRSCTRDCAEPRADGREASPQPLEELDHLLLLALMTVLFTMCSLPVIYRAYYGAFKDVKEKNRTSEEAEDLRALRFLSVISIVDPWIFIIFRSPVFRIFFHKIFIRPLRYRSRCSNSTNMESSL
Protocol: CHO K1 cells, stably expressing the Prostanoid DP1 receptor, were maintained in culture in DMEM/F12, supplemented with 5% FBS, 2 mM L-glutamine, 400 μg/mL hygromycin B in 95%: 5% air: CO2 at 37° C. Following harvest from culture, cells were centrifuged at 250 g at 4° C. for 10 minutes and re-suspended in ice cold dialysed FCS. Once the cells were in mono-suspension they were slowly mixed with an equal volume of ice cold 80% dialysed FCS: 20% DMSO (pre-mixed and chilled several hours earlier). The cells were then aliquoted into 1 mL tubes within a 96 well block (pre-cooled to 4° C.). Once sealed, the tubes were frozen in a controlled rate freezer. The frozen cells were then transferred to a −140° C. freezer for long term storage.
Measurement of cAMP Using TR-FRET LANCE™ Assays: Prostanoid DP1
The potency of the compounds were determined using a LANCE™ cAMP assay kit as per the kit instructions. Briefly, CHO cells expressing DP1 receptor were thawed at 37° C., diluted in PBS and centrifuged at 1000 RPM for 5 minutes. Cells were then re-suspended (2 million cells/mL) in stimulation buffer (HBSS containing 0.01% BSA, 500 μM FAC IBMX, 5 mmol/L HEPES adjusted to pH 7.4 with KOH.
Briefly, cells were added (10,000 cells/well at 5 μL addition) to low volume white Greiner polypropylene 384-well plate assay plates containing 0.1 μl test compound. Following a 15 minute incubation at room temperature, 5 μl of antibody solution (stimulation buffer containing Alexia fluor 647) containing PGD2 at twice the determined EC80 concentration was added. Plates were incubated for a further 30 minutes at room temperature then detection mixture was added (kit components; detection buffer, europiumW8044-labelled streptavidin and biotin cAMP at 10 μl/well). Plates were covered and incubated the room temperature for 1 hour before reading on a Viewlux Microplate Imager using TR-FRET label settings.
All compounds were dissolved in DMSO at a concentration of 10 mM and were prepared in 100% DMSO using a 1 in 4 dilution step to provide 11-point concentration—response curves. The dilutions were transferred to the assay plates ensuring that the DMSO concentration was constant across the plate at 1% for all assays.
All data were normalised to the mean of 16 high and 16 low control wells on each plate. A four parameter curve fit of the following form was then applied.
Where a is the minimum, b is the Hill slope, c is the XC50, and d is the maximum. Data are presented as the mean pXC50 (negative log 10 of the molar XC50) with the standard deviation (SD) of number of tests in the experiments.

asthma model = settings: guinea pig; cited from earlier work
allergic rhinitis model = settings: oral administration, guinea pig; cited from earlier work

Compound | Ki (Prostanoid DP1 receptor) | antigen-induced eosinophil infiltration into the lung (asthma model) | early and late nasal responses (allergic rhinitis model)
CC(C)c1nc2c(n1Cc1ccc(Cl)c(Cl)c1)C(CC(=O)O)CCC2 (centres unmarked) [Example 29, [1-[(3,4-dichlorophenyl)methyl]-2-(1-methylethyl)-4,5,6,7-tetrahydro-1H-benzimidazol-7-yl]acetic acid trifluoroacetic acid salt] | ≤ 10 nM |  | 
CC(C)c1nc2c(n1Cc1ccc(Cl)c(Cl)c1)C(OCC(=O)O)CCCC2 (centres unmarked) [Example 34, {[3-[(3,4-dichlorophenyl)methyl]-2-(1-methylethyl)-3,4,5,6,7,8-hexahydrocyclohepta[d]imidazol-4-yl]oxy}acetic acid ammonia salt] | ≤ 10 nM |  | 
CC(C)c1nc2c(n1Cc1ccc(Cl)c(Cl)c1)C(OCC(=O)O)CCCC2 (centres unmarked) [Example 35, {[3-[(3,4-dichlorophenyl)methyl]-2-(1-methylethyl)-3,4,5,6,7,8-hexahydrocyclohepta[d]imidazol-4-yl]oxy}acetic acid hydrochloride] | ≤ 100 nM |  | 
CC1(C)[C@H]2C[C@H](C/C=C\CCCC(=O)O)[C@@H](NC(=O)c3csc4ccc(O)cc34)[C@@H]1C2 [Example S-5751] |  | alleviated | inhibited

Second part, led by results:

Ki (Prostanoid DP1 receptor) | Compound | antigen-induced eosinophil infiltration into the lung (asthma model) | early and late nasal responses (allergic rhinitis model)
≤ 100 nM | CC(C)c1nc2c(n1[C@H](C)c1ccccc1)C(CC(=O)O)CCC2 (stereo partly drawn) [Example 31, {2-(1-methylethyl)-1-[(1R)-1-phenylethyl]-4,5,6,7-tetrahydro-1H-benzimidazol-7-yl}acetic acid ammonia salt] |  | 
≤ 100 nM | CC(C)c1nc2c(n1[C@H](C)c1ccc(Cl)cc1)C(CC(=O)O)CCC2 (stereo partly drawn) [Example 33, [1-[(1R)-1-(4-chlorophenyl)ethyl]-2-(1-methylethyl)-4,5,6,7-tetrahydro-1H-benzimidazol-7-yl]acetic acid ammonia salt] |  | 
≤ 100 nM and ≤ 10 nM and ~2.51 nM | CC(C)c1nc2c(n1Cc1ccc(Cl)c(Cl)c1)[C@@H](CC(=O)O)CCC2 [Example 40, [(7R)-1-[(3,4-dichlorophenyl)methyl]-2-(1-methylethyl)-4,5,6,7-tetrahydro-1H-benzimidazol-7-yl]acetic acid] |  | 
